According to PMC8589628, “Characterization and Antimicrobial Studies of Iturin-Like and Bogorol-Like Lipopeptides From Brevibacillus spp. Strains GI9 and SKDU10” (Frontiers in Microbiology, 2021):
In brackets after ≈: the same amount, converted by molar mass. Values belong to the compound of their own block, whether it stands above or below them.

Columns and labels:
[1] = system: F. moniliforme MTCC 158; assay: MIC against phytopathogenic fungi, 96-well microtiter plate method; format: cell-based, Fusarium moniliforme; conditions: Fusarium verticillioides, MTCC158, PDB
Protocol: (§1) The antimicrobial activity of HPLC purified compounds was determined against various test strains including S. aureus MTCC 1430, Vibrio cholera MTCC 3904, Bacillus subtilis MTCC 121, Listeria monocytogenes MTCC 839, C. albicans MTCC 183, C. albicans MTCC 1637, C. albicans MTCC 227, C. tropicalis MTCC 184, C. glabrata MTCC 3019, and C. inconspicua MTCC 1074. Antimicrobial activity was also tested against clinical Candida strains and phytopathogenic fungi viz. Fusarium moniliforme MTCC 158, Alternaria brassicicola MTCC 2102 and Colletotrichum acutatum MTCC 1037. Bacterial and Candida test strains were grown in NB and yeast malt broth (YMB), respectively. Fungal test strains were grown in potato dextrose broth (PDB). Minimum inhibitory concentrations (MICs) of purified compounds were evaluated against test organisms by using a microtiter plate dilution assay. Mid-log-phase test strains (5 × 10^5 CFU/ml) were incubated in a 96-well plate with different concentrations of the lipopeptides for 24–48 h at 37°C (final volume of 200 μl). OD was measured at 600 nm after 24 and 48 h for bacteria and yeast, respectively, using an ELISA microplate reader (Thermo Scientific, United States). MIC against phytopathogenic fungi was determined using the 96-well microtiter plate method ([Sharma et al., 2020]).

[2] = system: C. tropicalis MTCC 184; assay: MIC, microtiter plate dilution assay; format: cell-based; parameters: key to MIC value: R = resistant; conditions: 5 × 10^5 CFU/ml, 37°C, OD 600 nm after 48 h
Protocol: as §1

[3] = system: C. haemulonii MTCC 2766; assay: MIC, microtiter plate dilution assay; format: cell-based; parameters: key to MIC value: R = resistant; conditions: 5 × 10^5 CFU/ml, 37°C, OD 600 nm after 48 h
Protocol: as §1

[4] = system: C. glabrata MTCC 3019; assay: MIC, microtiter plate dilution assay; format: cell-based; parameters: key to MIC value: R = resistant; conditions: 5 × 10^5 CFU/ml, 37°C, OD 600 nm after 48 h
Protocol: as §1

[5] = system: A. brassicicola MTCC 2102; assay: MIC against phytopathogenic fungi, 96-well microtiter plate method; format: cell-based, Alternaria brassicicola; parameters: key to MIC value: R = resistant
Protocol: as §1

[6] = system: C. albicans MTCC 227; assay: MIC, microtiter plate dilution assay; format: cell-based, Candida albicans; parameters: key to MIC value: R = resistant; conditions: 5 × 10^5 CFU/ml, 37°C, OD 600 nm after 48 h
Protocol: as §1

[7] = system: C. albicans MTCC 1637; assay: MIC, microtiter plate dilution assay; format: cell-based, Candida albicans; parameters: key to MIC value: R = resistant; conditions: 5 × 10^5 CFU/ml, 37°C, OD 600 nm after 48 h
Protocol: as §1

[8] = system: C. kefyr 410004; assay: MIC, microtiter plate dilution assay, clinical strain; format: cell-based; parameters: key to MIC value: R = resistant; conditions: YMB, 37°C, OD 600 nm after 48 h
Protocol: (§2) Brevibacillus sp. strains GI-9 and SKDU10 were known to produce class IId bacteriocins identified as laterosporulins a ([Singh et al., 2012]; [Baindara et al., 2016]). Both strains were grown on nutrient agar (NA, Himedia, India). All test strains used in this study were obtained from Microbial Type Culture Collection and Gene bank (MTCC), Chandigarh, India. Clinical Candida strains were obtained from the National Culture Collection of Pathogenic Fungi (NCCPF), PGIMER, Chandigarh, India, and all strains were grown on recommended media.
as §1

[9] = system: C. haemulonii 470125; assay: as above; format: cell-based; parameters: key to MIC value: R = resistant; conditions: YMB, 37°C, OD 600 nm after 48 h
Protocol: as §2, §1

[10] = system: C. auris 470126; assay: as above; format: cell-based; parameters: key to MIC value: R = resistant; conditions: YMB, 37°C, OD 600 nm after 48 h
Protocol: as §2, §1

[11] = system: C. tropicalis 420024; assay: as above; format: cell-based; parameters: key to MIC value: R = resistant; conditions: YMB, 37°C, OD 600 nm after 48 h
Protocol: as §2, §1

[12] = system: C. albicans 400054; assay: as above; format: cell-based, Candida albicans; parameters: key to MIC value: R = resistant; conditions: YMB, 37°C, OD 600 nm after 48 h
Protocol: as §2, §1

[13] = system: C. inconspicua MTCC 1074; assay: MIC, microtiter plate dilution assay; format: cell-based; conditions: Pichia inconspicua, MTCC1074, YMB, 5 × 10^5 CFU/ml, 37°C, OD 600 nm after 48 h
Protocol: as §1

[14] = system: C. parapsilosis 450030; assay: MIC, microtiter plate dilution assay, clinical strain; format: cell-based; conditions: Lodderomyces parapsilosis, YMB, 37°C, OD 600 nm after 48 h
Protocol: as §2, §1

[15] = system: C. rugosa 470141; assay: as above; format: cell-based; conditions: Diutina rugosa, YMB, 37°C, OD 600 nm after 48 h
Protocol: as §2, §1

[16] = system: C. krusei 440009; assay: as above; format: cell-based; conditions: Pichia kudriavzevii, YMB, 37°C, OD 600 nm after 48 h
Protocol: as §2, §1

[17] = system: C. acutatum MTCC1037; assay: MIC against phytopathogenic fungi, 96-well microtiter plate method; format: cell-based, Colletotrichum acutatum; parameters: key: R = resistant; conditions: PDB
Protocol: as §1

[18] = system: C. albicans MTCC 183; assay: MIC, microtiter plate dilution assay; format: cell-based, Candida albicans; conditions: Candida albicans, MTCC183, YMB, 5 × 10^5 CFU/ml, 37°C, OD 600 nm after 48 h
Protocol: as §1

[19] = system: Vigna radiata (Moong) seeds; assay: Seed germination-based phytotoxicity assay; conditions: Vigna radiata seeds soaked in 0.1% solution (positive control), up to 3 days
Protocol: For hemolysis assay rabbit erythrocytes were treated with different concentrations of purified active antimicrobial compounds ranging from 250 to 750 μg/ml and incubated at 37°C for 24 h in a 5% CO2 incubator. The release of hemoglobin was monitored by measuring the absorbance at 540 nm in a microplate reader. PBS and 0.1% Triton X-100 were used as controls for 0 and 100% hemolysis, respectively ([Singh et al., 2021]). For phytotoxicity assay, sterilized Vigna radiata (Moong) seeds were treated with different concentrations of purified antimicrobial compounds (250–750 μg/ml). Seeds soaked in water and 0.1% mercuric chloride were used as negative and positive control, respectively. Seeds germination was observed up to 3 days of incubation.

MIC [1]: 10 µg/mL (≈ 32.7 µM)
MIC value ([2]; YMB): R
MIC value ([3]; YMB): R
MIC value ([4]; YMB): R
MIC value ([5]; PDB): R
MIC value ([6]; YMB): R
MIC value ([7]; YMB): R
MIC value [8]: R
MIC value [9]: R
MIC value [10]: R
MIC value [11]: R
MIC value [12]: R
MIC [13]: 50 µg/mL (≈ 163 µM)
MIC [14]: 10 µg/mL (≈ 32.7 µM)
MIC [15]: 5 µg/mL (≈ 16.3 µM)
MIC [16]: 1 µg/mL (≈ 3.27 µM)
MIC value [17]: R
SMILES: OC(Cn1cncn1)(Cn1cncn1)c1ccc(F)cc1F [Fluconazole]

MIC [1]: 50 µg/mL (≈ 54.1 µM)
MIC ([2]; Candida tropicalis, MTCC184, YMB): 35 µg/mL (≈ 37.9 µM)
MIC ([3]; Candidozyma haemuli, MTCC2766, YMB): 100 µg/mL (≈ 108 µM)
MIC ([4]; Nakaseomyces glabratus, MTCC3019, YMB): 25 µg/mL (≈ 27.1 µM)
MIC ([5]; Alternaria brassicicola, MTCC2102, PDB): 50 µg/mL (≈ 54.1 µM)
MIC ([6]; Candida albicans, MTCC227, YMB): 5 µg/mL (≈ 5.41 µM)
MIC ([7]; Candida albicans, MTCC1637, YMB): 5 µg/mL (≈ 5.41 µM)
MIC ([8]; Kluyveromyces marxianus): 50 µg/mL (≈ 54.1 µM)
MIC ([9]; Candidozyma haemuli): 50 µg/mL (≈ 54.1 µM)
MIC ([10]; Candidozyma auris): 5 µg/mL (≈ 5.41 µM)
MIC ([11]; Candida tropicalis): 50 µg/mL (≈ 54.1 µM)
MIC ([12]; Candida albicans): 5 µg/mL (≈ 5.41 µM)
MIC [13]: 10 µg/mL (≈ 10.8 µM)
MIC [14]: 50 µg/mL (≈ 54.1 µM)
MIC [15]: 5 µg/mL (≈ 5.41 µM)
MIC [16]: 5 µg/mL (≈ 5.41 µM)
MIC [18]: 5 µg/mL (≈ 5.41 µM)
MIC value [17]: R
SMILES: C[C@@H]1[C@H](O)[C@@H](C)/C=C/C=C/C=C/C=C/C=C/C=C/C=C/[C@H](O[C@@H]2O[C@H](C)[C@@H](O)[C@H](N)[C@@H]2O)C[C@@H]2O[C@](O)(C[C@@H](O)C[C@@H](O)[C@H](O)CC[C@@H](O)C[C@@H](O)CC(=O)O[C@H]1C)C[C@H](O)[C@H]2C(=O)O [Amphotericin B]

SMILES: [Cl][Hg][Cl] [mercuric chloride]
Seed germination [19]: No germination
